From publication PMC9973354 (mBio, 2022) come the findings set out here.

One data set deals with PA14. Nature of the data set: MIC assay, WT PA14. Type of data set: cell-based, Pseudomonas aeruginosa. Particulars: WT PA14, iron-limited medium (10:90). Here is the method: (§1) MIC assays were conducted as previously described ([13], [14]). Overnight cultures were grown in LB from a glycerol stock at 37°C with shaking (200 rpm). Subcultures in 10:90 (1:100 dilution) were cultured for 4 h. Cells were adjusted to an optical density at 600 nm (OD600) of 0.1/500 in 10:90. All compounds were serially diluted 2-fold in dimethyl sulfoxide (DMSO) or H2O at 75× the final concentration. Plates were sealed to prevent evaporation and incubated at 37°C overnight in a shaking incubator (200 rpm). The next day, the OD600 was determined with a plate reader (Thermo Scientific) and normalized to percent of growth of the vehicle control after subtracting the OD600 from blank media.

The subject of the next data set is PA14 ΔfpvA mutant. Nature of the data set: MIC assay, ΔfpvA mutant. Particulars: ΔfpvA mutant, iron-limited medium (10:90). It counts as cell-based, Pseudomonas aeruginosa. Here is the method: as §1
The next data set has as its system PA14 ΔfpvB mutant. Nature of the data set: MIC assay, ΔfpvB mutant. It counts as cell-based, Pseudomonas aeruginosa. As to conditions: 10:90, growth reduced at 17 μg/mL. The protocol: as §1
Another data set concerns PA14 ΔfpvA ΔfpvB mutant. Nature of the data set: MIC assay, ΔfpvA ΔfpvB mutant. As to conditions: ΔfpvA ΔfpvB mutant, 10:90. It counts as cell-based, Pseudomonas aeruginosa. The protocol: as §1
Data set [1] concerns PA14 ΔfpvA ΔfpvB pHERD20T-fpvA. Nature of the data set: MIC assay, ΔfpvA ΔfpvB complemented with fpvA. Particulars: complementation with fpvA, arabinose induction, 10:90. Type of data set: cell-based, Pseudomonas aeruginosa. Here is the method:
(§2) The ΔfpvA ΔfpvB mutant was complemented in trans with pHERD20T-fpvA or pHERD20T-fpvB. pHERD20T is an arabinose-inducible vector with expression driven by the PBAD promoter under the control of AraC ([30]).
as §1

Data set [2] concerns PA14 ΔfpvA ΔfpvB pHERD20T-fpvB. Nature of the data set: MIC assay, ΔfpvA ΔfpvB complemented with fpvB. Type of data set: cell-based, Pseudomonas aeruginosa. Particulars: complementation with fpvB, arabinose induction, 10:90; susceptibility greater than with fpvA. The protocol:
as §2, §1

For data set [3], the system named is PA14 ΔfpvA ΔfpvB ΔfiuA ΔfoxA quadruple mutant. Nature of the data set: Growth phenotypes of deletion mutants, quadruple mutant. Type of data set: cell-based, Pseudomonas aeruginosa. Particulars: 17 μg/mL TS, 10:90. An excerpt:
PA14, ΔfpvA, ΔfpvB, and ΔfpvA ΔfpvB strains treated with TS (A) and DSX (B) in 10:90. Green indicates growth, and white indicates no growth. Growth is expressed as percent of control. The PA14 ΔfpvA ΔfpvB strain complemented with pHERD20T, fpvA, or fpvB treated with TS (C) and DSX (D) in 10:90. […] All experiments are averaged from three independent biological replicates. Blue indicates growth and white indicates no growth. (H) Summary of growth phenotypes of WT PA14 and combinations of single, double, triple, and quadruple deletion mutants in fpvA, fpvB, fiuA, and foxA. […] Green indicates growth, whereas no growth is indicated in white. […] Representative plates are shown.
If there were no transporters for a particular siderophore, the mutant would fail to grow due to iron restriction.

The conditions of data set [4]: highest concentration tested, 10μM fluorescein-5-maleimide in PBS. Here is the method:
Supplementary file : FIG S4 (A) Microscopy images of the PA14 ΔfpvA ΔfpvB strain with pHERD20T, pHERD20T-fpvA, and pHERD20T-fpvB treated with Alexa Fluor 594. Representative images are shown. Scale, 5μm. (B) TS partly quenches fluorescence of fluorescein-5-maleimide in the absence of cells. Each compound at the highest concentration tested was added to 10μM of fluorescein-5-maleimide in PBS in triplicate. TS reduced fluorescence to about 80% of the control. (Excitation, 485nm; emission, 528nm). ***, P < 0.001 (Student’s t test). […] Results are averaged from three independent biological replicates. Download FIG S4, EPS file, 39.8 MB.
TS was omitted from these studies because it quenched fluorescence (~20%) of the dye in the absence of cells (Fig. S4B). In the absence of protein, none of the three siderophores quenched fluorescence of the dye at the highest concentrations tested. Quenching curves were then generated and used to calculate the dissociation constant (Kd).

Data set [5] relates to PA14 ΔfpvA ΔfpvB pHERD20T-fpvA T660C. Nature of the data set: MIC assay, ΔfpvA ΔfpvB expressing FpvA T660C. Type of data set: cell-based, Pseudomonas aeruginosa. Particulars: 10:90 + 2% arabinose. An excerpt: (§3) FpvA T660C was used previously to measure pyoverdine-Fe^3+ binding affinity ([32]). However, this technique has not been applied to FpvB. A high-confidence structural model of FpvB was generated using AlphaFold2 ([33], [34]) and aligned with the structure of FpvA (PDB accession number 2O5P) to identify a residue suitable for labeling, with the assumption that FpvA and FpvB undergo similar conformational changes upon ferrisiderophore binding (see Fig. S3A through C in the supplemental material). Based on this analysis, FpvB R648 was mutated to Cys. FpvA T660C and FpvB R648C were each expressed in trans in the ΔfpvA ΔfpvB mutant. […] We could also detect expression by fluorescence microscopy with peripheral labeling consistent with expression in the outer membrane (Fig. 3B). Labeling was undetectable in empty vector and WT controls (see Fig. S4A in the supplemental material).
(§4) Supplementary file : FIG S3 Overlay of FpvA and FpvB showing residues mutated to cysteine for labeling with maleimide dyes. FpvA (PDB accession number 2O5P) was superimposed with the AlphaFold2 model of FpvB. FpvA is shown in beige and FpvB in blue. […]
(§5) MIC assays were conducted as previously described ([13], [14]). […] The next day, the OD600 was determined with a plate reader (Thermo Scientific) and normalized to percent of growth of the vehicle control after subtracting the OD600 from blank media.

Data set [6] has as its system PA14 ΔfpvA ΔfpvB pHERD20T-fpvB R648C. Nature of the data set: MIC assay, ΔfpvA ΔfpvB expressing FpvB R648C. It counts as cell-based, Pseudomonas aeruginosa. Particulars: 10:90 + 2% arabinose.
From the text: as §3, §4, §5

The test system of data set [7] is PA14 ΔfpvA ΔfpvB ΔfiuA ΔfoxA pHERD20T. Nature of the data set: Growth of quadruple mutant with empty vector. Type of data set: cell-based, Pseudomonas aeruginosa. As to conditions: 10:90 + 2% arabinose. Here is the method:
(§6) Site-directed mutagenesis was used to confirm the docking predictions and to define the molecular determinants for ligand uptake through FpvB (Fig. 4C). We generated 17 single amino acid substitutions in FpvB and expressed each of them in trans in the quadruple ΔfpvA ΔfpvB ΔfiuA ΔfoxA mutant. Their ability to complement growth of the mutant in the presence of ferrichrome and ferrioxamine B and to restore TS susceptibility was assessed. […] The mutant transporters were tagged with a C-terminal FLAG tag to evaluate expression levels. FLAG-tagged FpvB mutants had WT levels of expression except for Y216T and W347V, which were expressed at 140% and 25% of WT, respectively.
(§7) The ΔfpvA ΔfpvB ΔfiuA ΔfoxA mutant was complemented with WT fpvA, fpvB, fiuA, and foxA in trans as controls (Fig. 4E).
(§8) MIC assays were conducted as previously described ([13], [14]). Overnight cultures were grown in LB from a glycerol stock at 37°C with shaking (200 rpm). Subcultures in 10:90 (1:100 dilution) were cultured for 4 h. Cells were adjusted to an optical density at 600 nm (OD600) of 0.1/500 in 10:90. All compounds were serially diluted 2-fold in dimethyl sulfoxide (DMSO) or H2O at 75× the final concentration. […] The next day, the OD600 was determined with a plate reader (Thermo Scientific) and normalized to percent of growth of the vehicle control after subtracting the OD600 from blank media.

The test system of data set [8] is PA14 ΔfpvA ΔfpvB ΔfiuA ΔfoxA pHERD20T-fpvB Y216T. Nature of the data set: Growth of quadruple mutant expressing FpvB Y216T. Type of data set: cell-based, Pseudomonas aeruginosa. Particulars: 10:90 + 2% arabinose. Here is the method: as §6, §7, §8
Data set [9] has as its system PA14 ΔfpvA ΔfpvB ΔfiuA ΔfoxA pHERD20T-fpvB D219A. Nature of the data set: Growth of quadruple mutant expressing FpvB D219A. It counts as cell-based, Pseudomonas aeruginosa. As to conditions: 10:90 + 2% arabinose. The protocol: as §6, §7, §8
Data set [10] concerns PA14 ΔfpvA ΔfpvB ΔfiuA ΔfoxA pHERD20T-fpvB Y412A. Nature of the data set: Growth of quadruple mutant expressing FpvB Y412A. It counts as cell-based, Pseudomonas aeruginosa. As to conditions: 10:90 + 2% arabinose. The protocol: as §6, §7, §8
Data set [11] is described as follows: Maximum soluble TS concentration. Particulars: in MIC assay medium.

Structures are written as SMILES.

As to `C=C(NC(=O)C(=C)NC(=O)c1csc(C2=N[C@@H]3c4csc(n4)[C@H]4NC(=O)c5csc(n5)[C@H]([C@](C)(O)[C@@H](C)O)NC(=O)[C@H]5CSC(=N5)/C(=C/C)NC(=O)[C@H]([C@@H](C)O)NC(=O)c5csc(n5)[C@]3(CC2)NC(=O)[C@H](C)NC(=O)C(=C)NC(=O)[C@H](C)NC(=O)[C@H]([C@@H](C)CC)N[C@@H]2C=Cc3c([C@H](C)O)cc(nc3[C@H]2O)C(=O)O[C@@H]4C)n1)C(N)=O` [TS, thiostrepton], the “TS susceptibility (MIC assay)” value is on record as “susceptible” in the data set on PA14, “susceptible” in the data set with PA14 ΔfpvA mutant, “resistant” in the data set on PA14 ΔfpvB mutant and “resistant” with PA14 ΔfpvA ΔfpvB mutant. Moreover, the TS susceptibility entry was “restored TS susceptibility” in data set [1]; “restored TS susceptibility” in data set [2]; “resistant” in data set [3]; “WT susceptibility” in [6]; “resistant” in data set [7]; “reduced TS susceptibility” in data set [8]. For the same molecule, the TS susceptibility result in data set [9] and in [10] was “reduced TS susceptibility” each time. Further, the dye fluorescence remaining entry in data set [4] is listed as “about 80 % of the control”. In addition, in data set [4], the “quenching of dye fluorescence in the absence of cells” value is listed as ~ 20%. Also, in [5], the “increase of susceptibility to TS compared to WT FpvA” value stood at 4 fold. Further, the maximum soluble concentration in [11] was determined as 17 µg/mL.
